Assay results taken from US9896418B2, “Aryl ethers and uses thereof” (Peloton Therapeutics, Inc., priority 2013, dated 2018).

System: HIF-2α HIS TAG-PASB Domain
Experiment: HIF-2α Scintillation Proximity Assay (SPA)
Assay type: binding
Description: The percent inhibition was determined and IC50 values were calculated using the Dotmatics system based on the following equation: % inhibition=[(high control−sample)/(high control−low control)]×100.

Structure (SMILES) | IC50 [nM]
C=CS(=O)(=O)c1ccc(Oc2cc(F)cc(Cl)c2)c(Br)c1 [Compound 130, 2-Bromo-1-(3-chloro-5-fluorophenoxy)-4-(vinylsulfonyl)benzene] | 5500
O=S(=O)(c1ccc(Oc2cc(F)cc(Cl)c2)c(Br)c1)C(F)F [Compound 131, 2-Bromo-1-(3-chloro-5-fluorophenoxy)-4-((difluoromethyl)sulfonyl)benzene] | 310
N#Cc1cc(F)cc(Oc2ccc(S(=O)(=O)C(F)F)cc2Br)c1 [Compound 132, 3-(2-Bromo-4-((difluoromethyl)sulfonyl)phenoxy)-5-fluorobenzonitrile] | 310
N#Cc1cc(S(=O)(=O)C(F)F)ccc1Oc1cc(F)cc(Cl)c1 [Compound 133, 2-(3-Chloro-5-fluorophenoxy)-5-((difluoromethyl)sulfonyl)benzonitrile] | 500
N#Cc1cc(F)cc(Oc2ccc(S(=O)(=O)C(F)F)cc2C#N)c1 [Compound 134, 2-(3-Cyano-5-fluorophenoxy)-5-((difluoromethyl)sulfonyl)benzonitrile] | 450
Cc1cc(S(=O)(=O)C(F)F)ccc1Oc1cc(F)cc(Cl)c1 [Compound 135, 1-(3-Chloro-5-fluoro-phenoxy)-4-(difluoromethylsulfonyl)-2-methyl-benzene] | 370
Cc1cc(S(=O)(=O)C(F)F)ccc1Oc1cc(F)cc(C#N)c1 [Compound 136, 3-[4-(Difluoromethylsulfonyl)-2-methyl-phenoxy]-5-fluoro-benzonitrile] | 230
O=S(=O)(CF)c1ccc(Oc2cc(F)cc(Cl)c2)c(Br)c1 [Compound 137, 2-Bromo-1-(3-chloro-5-fluorophenoxy)-4-((fluoromethyl)sulfonyl)benzene] | 560
CS(=O)(=O)c1ccc(Oc2cc(F)cc(Cl)c2)c(Br)c1 [Compound 138, 2-Bromo-1-(3-chloro-5-fluorophenoxy)-4-(methylsulfonyl)benzene] | 4000
Cc1c(Oc2cc(F)cc(Cl)c2)ccc(S(=O)(=O)C(F)(F)F)c1Br [Compound 140, 3-Bromo-1-(3-chloro-5-fluoro-phenoxy)-2-methyl-4-(trifluoromethylsulfonyl)benzene] | 29
Cc1c(Oc2cc(F)cc(C#N)c2)ccc(S(=O)(=O)C(F)(F)F)c1Br [Compound 141, 3-[3-Bromo-2-methyl-4-(trifluoromethylsulfonyl)phenoxy]-5-fluoro-benzonitrile] | 65
Cc1c(Oc2cc(F)cc(C#N)c2)ccc(S(=O)(=O)C(F)(F)F)c1C#CCO [Compound 142, 3-Fluoro-5-[3-(3-hydroxyprop-1-ynyl)-2-methyl-4-(trifluoromethylsulfonyl)phenoxy]benzonitrile] | 13000
Cc1c(Oc2cc(F)cc(Cl)c2)ccc(S(=O)(=O)C(F)(F)F)c1Cl [Compound 143, 3-Chloro-1-(3-chloro-5-fluoro-phenoxy)-2-methyl-4-(trifluoromethylsulfonyl)benzene] | 20
Cc1c(Oc2cc(F)cc(C#N)c2)ccc(S(=O)(=O)C(F)(F)F)c1Cl [Compound 144, 3-Fluoro-5-[3-chloro-2-methyl-4-(trifluoromethylsulfonyl)phenoxy]benzonitrile] | 44
Cc1c(Oc2cc(F)cc(C#N)c2)ccc(S(=O)(=O)C(F)(F)F)c1C=O [Compound 145, 3-Fluoro-5-[3-formyl-2-methyl-4-(trifluoromethylsulfonyl)phenoxy]benzonitrile] | 74
COC(=O)/C=C/c1c(S(=O)(=O)C(F)(F)F)ccc(Oc2cc(F)cc(C#N)c2)c1C [Compound 147, Methyl (E)-3-[3-(3-cyano-5-fluoro-phenoxy)-2-methyl-6-(trifluoromethylsulfonyl)phenyl]prop-2-enoate] | 110
CCOC(=O)/C=C/c1c(S(=O)(=O)C(F)(F)F)ccc(Oc2cc(F)cc(C#N)c2)c1C [Compound 148, Ethyl (E)-3-(3-(3-cyano-5-fluorophenoxy)-2-methyl-6-((trifluoromethyl)sulfonyl)phenyl)acrylate] | 220
Cc1c(Oc2cc(F)cc(C#N)c2)ccc(S(=O)(=O)C(F)(F)F)c1/C=C/C(=O)NCc1ccccc1 [Compound 149, (E)-N-Benzyl-3-(3-(3-cyano-5-fluorophenoxy)-2-methyl-6-((trifluoromethyl)sulfonyl)phenyl)acrylamide] | 5700
Cc1c(Oc2cc(F)cc(C#N)c2)ccc(S(=O)(=O)C(F)(F)F)c1/C=C/c1nnco1 [Compound 150, 3-Fluoro-5-[2-methyl-3-[(E)-2-(1,3,4-oxadiazol-2-yl)vinyl]-4-(trifluoromethylsulfonyl)phenoxy]benzonitrile] | 1300
Cc1nnc(/C=C/c2c(S(=O)(=O)C(F)(F)F)ccc(Oc3cc(F)cc(C#N)c3)c2C)o1 [Compound 151, 3-Fluoro-5-[2-methyl-3-[(E)-2-(5-methyl-1,3,4-oxadiazol-2-yl)vinyl]-4-(trifluoromethylsulfonyl)phenoxy]benzonitrile] | 1100
CS(=O)(=O)c1ccc(Oc2cc(F)cc(C#N)c2)c(C#N)c1Cl [Compound 152, 2-chloro-6-(3-cyano-5-fluorophenoxy)-3-(methylsulfonyl)benzonitrile] | 320
N#Cc1c(Oc2cc(F)cc(Cl)c2)ccc(S(=O)(=O)C(F)(F)F)c1F [Compound 153, 6-(3-chloro-5-fluorophenoxy)-2-fluoro-3-((trifluoromethyl)sulfonyl)benzonitrile] | 230
N#Cc1c(Oc2cc(F)cc(Cl)c2)ccc(S(=O)(=O)C(F)(F)F)c1NCCO [Compound 154, 6-(3-Chloro-5-fluoro-phenoxy)-2-(2-hydroxyethylamino)-3-(trifluoromethylsulfonyl)benzonitrile] | 11700

Next, values leading:

IC50 [nM] | Structure (SMILES)
1900 | O=S(=O)(c1ccc(Oc2ccc(Cl)c(Cl)c2)c(Br)c1)C(F)(F)F [Compound 169, 2-Bromo-1-(3,4-dichlorophenoxy)-4-((trifluoromethyl)sulfonyl)benzene]
1800 | O=S(=O)(c1ccc(Oc2cc(Cl)ccc2F)c(Br)c1)C(F)(F)F [Compound 170, 2-Bromo-1-(5-chloro-2-fluorophenoxy)-4-((trifluoromethyl)sulfonyl)benzene]
1200 | Cc1c(Cl)cccc1Oc1ccc(S(=O)(=O)C(F)(F)F)cc1Br [Compound 171, 1-(2-Bromo-4-((trifluoromethyl)sulfonyl)phenoxy)-3-chloro-2-methylbenzene]
310 | O=S(=O)(c1ccc(Oc2cc(Cl)cc(Cl)c2)c(Br)c1)C(F)(F)F [Compound 172, 2-Bromo-1-(3,5-dichlorophenoxy)-4-((trifluoromethyl)sulfonyl)benzene]
2000 | Cc1cc(C)cc(Oc2ccc(S(=O)(=O)C(F)(F)F)cc2Br)c1 [Compound 173, 2-Bromo-1-(3,5-dimethylphenoxy)-4-((trifluoromethyl)sulfonyl)benzene]
1200 | Cc1ccc(Cl)cc1Oc1ccc(S(=O)(=O)C(F)(F)F)cc1Br [Compound 174, 2-Bromo-1-(5-chloro-2-methylphenoxy)-4-((trifluoromethyl)sulfonyl)benzene]
18000 | O=S(=O)(c1ccc(Oc2cc(F)cc(CO)c2)c(Br)c1)C(F)(F)F [Compound 177, (3-(2-Bromo-4-((trifluoromethyl)sulfonyl)phenoxy)-5-fluorophenyl)methanol]
920 | C/C=C/c1c(S(=O)(=O)C(F)F)ccc(Oc2cc(F)cc(C#N)c2)c1C#N [Compound 178, (E)-6-(3-Cyano-5-fluorophenoxy)-3-((difluoromethyl)sulfonyl)-2-(prop-1-en-1-yl)benzonitrile]
23 | O=S(=O)(c1ccc(Oc2cc(F)cc(Cl)c2)c(Br)c1Cl)C(F)(F)F [Compound 179, 2-Bromo-3-chloro-1-(3-chloro-5-fluorophenoxy)-4-((trifluoromethyl)sulfonyl)benzene]
9400 | CS(=N)(=O)c1ccc(Oc2cc(F)cc(Cl)c2)c(C#N)c1Cl (centres unmarked) [Compound 180, 2-Chloro-6-(3-chloro-5-fluorophenoxy)-3-(S-methylsulfonimidoyl)benzonitrile]
380 | O=C1c2c(S(=O)(=O)C(F)F)ccc(Oc3cncc(Cl)c3)c2CC1(F)F [Compound 182, 4-((5-Chloropyridin-3-yl)oxy)-7-((difluoromethyl)sulfonyl)-2,2-difluoro-2,3-dihydro-1H-inden-1-one]
720 | O=S(=O)(c1ccc(Oc2cncc(Cl)c2)c2c1[C@H](O)CC2)C(F)(F)F [Compound 184, (R)-4-((5-Chloropyridin-3-yl)oxy)-7-((trifluoromethyl)sulfonyl)-2,3-dihydro-1H-inden-1-ol]
3200 | CS(=O)(=NC#N)c1ccc(Oc2cc(F)cc(F)c2)c2c1C(O)CC2 (centres unmarked) [Compound 189, N-((7-(3,5-Difluorophenoxy)-3-hydroxy-2,3-dihydro-1H-inden-4-yl)(methyl)(oxo)-λ^6-sulfanylidene)cyanamide]
580 | CS(=N)(=O)c1ccc(Oc2cc(F)cc(F)c2)c2c1C(O)CC2 (centres unmarked) [Compound 190, (7-(3,5-Difluorophenoxy)-3-hydroxy-2,3-dihydro-1H-inden-4-yl)(imino)(methyl)-λ^6-sulfanone]
900 | O=C1c2c(S(=O)(=O)C(F)F)ccc(Oc3ccc(F)c(Br)c3)c2CC1(F)F [Compound 193, 4-(3-Bromo-4-fluorophenoxy)-7-((difluoromethyl)sulfonyl)-2,2-difluoro-2,3-dihydro-1H-inden-1-one]
110 | O=C1c2c(S(=O)(=O)C(F)F)ccc(Oc3ccc(F)c(F)c3)c2CC1(F)F [Compound 195, 7-((Difluoromethyl)sulfonyl)-4-(3,4-difluorophenoxy)-2,2-difluoro-2,3-dihydro-1H-inden-1-one]
770 | Cc1cc(Oc2ccc(S(=O)(=O)C(F)F)c3c2CC(F)(F)C3=O)ccc1F [Compound 197, 7-((Difluoromethyl)sulfonyl)-2,2-difluoro-4-(4-fluoro-3-methylphenoxy)-2,3-dihydro-1H-inden-1-one]
680 | N#Cc1cc(F)cc(Oc2ccc(S(=O)(=O)C(F)F)c3c2CCC3F)c1 (centres unmarked) [Compound 202, 3-((7-((Difluoromethyl)sulfonyl)-1-fluoro-2,3-dihydro-1H-inden-4-yl)oxy)-5-fluorobenzonitrile]
